Assay results published in patent US20020102533A1, “Hepatitis C protease exosite for inhibit or design” (priority 2000, published 2002).
Where a SMILES comes first, the peptide text is derived from it. Where no end group is shown, it is not given here. [ ]: non-standard residue; d: D form. The star is where a group is joined. Dip = N[C@H](C(=O)O)C(c1ccccc1)c1ccccc1; X1 = C=CCC(N*)B1OC2CC3CC(C3(C)C)C2(C)O1; Cha = N[C@@H](CC1CCCCC1)C(=O)O; AlgCF2CF3 = not defined here; Abu = CC[C@H](N)C(=O)O

Columns and labels:
[1] = biological target: T1, HCV NS3 protease, genotype 1a (Hepatitis C virus genotype 1a, UniProt P26664); assay: biochemical; assay type: biochemical; conditions: for (S = P6-P3′) Inhibition(+) / Activation (−): substrate A
T1 construct: NS3 protease catalytic domain (amino acids 1 to 192); MGAQH expression leader (5 aa), or alternatively the 15 aa His tag […]; made in house; host or cells: E. coli BL21 (DE3)
Description: (§1) Endpoint HPLC based HCV protease assay: HCV protease (5 nM) was incubated in 50 mM Tris pH 7.5, 0.1% maltoside, 5 mM DTT and appropriate amounts of glycerol, NS4A peptide, and substrate. Routine assays were 100 μl in volume containing 15% or 50% glycerol, 5.0 μM NS4A peptide and 5.0 μM substrate. Reactions were run at room temperature (˜22° C.) and quenched by the addition of 4 μl of 10% TFA before 10% of the substrate was consumed. Incubation times were 20 minutes for the ester substrate (Peptide Substrate A) and 80 minutes for the P6-P7′ amide substrate (Peptide Substrate B). […] Incubation times were 90 min. Samples, 50 μl, were injected onto an Hewlett Packard 1090 Liquid Chromatograph containing a Dynamax-60A C18 column. The column was eluted with a linear gradient from 10% acetonitrile to 45% acetonitrile in water. All solvents contained 0.1% TFA. A flow rate of 1 ml/min was used. […] The product peaks were detected by fluorescence excitation at 350 nm and emission at 500 nm.
Continuous fluorescence-based HCV protease assay: This asay was a modified version of method of Taliani (Taliani, M.; et al. Anal. Biochem. 240, 60-67, 1996) using Substrate A (Ac-D-E-D(EDANS)-E-E-Abuψ[COO]-A-S-K(DABCYL)—NH2). Assays were run in a 96-well microtiter plates using a Perkin Elmer Luminescence Spectrometer LS50B exciting at 350 nm (10 nm slit) and emitting at 500 nm (10 nm slit). In a typical assay the protease (1-4 nM) was incubated with 10 μM NS4a peptide in 50 mM Tris pH 7.0, 5.0 mM DTT, 50% glycerol, and […] for 15 min. Catalysis was initiated by the addition of Substrate A (final concentration 5.0 μM). Assays were also run under conditions where 15% glycerol, 0.1% Maltoside were substituted for 50% glycerol and 5% CHAPS. Enzymatic activity was monitored by measuring the increase in fluorescence with time using excitation wavelength of 350 nm and an emission wavelength of 500 nm. Both slit widths were 10 nm. Inhibition constants were determined from a nonlinear least squares fit of the data to the equation Vi/Vo=1/(1+[I]/Kiapp). Where Vi is the velocity measured in the presence of inhibitor (inhibitors were introduced with the NS4a peptide) and Vo is the velocity of controls. The thermodynamic Ki was determined from Kiapparent via the relationship for competitive kinetics: Ki=Kiapp/(1+[S]/Km) where [S] is the substrate concentration.
(§2) Footnote a for Table 1 references the assay condiditions: 1) Substrate A=P6-P3′, HCV protease (4.0 nM) was incubated with various concentrations of truncated analogs of Q9692 in 50 mM Tris buffer, pH 7.0, 15% glycerol, 0.1% maltoside, 5 mM DTT and 10 μM NS4A peptide in a 96-well microtiter plate at room temperature. After 15 minutes catalysis was initiated by the addition of Ac-D-E-D(EDANS)-E-E-Abuψ[COO]-A-S-K(DABCYL)—NH2 (final concentration 5.0 μM in a total reaction volume of 200 μl). Enzymatic activity was monitored by measuring the increase in fluorescence with time on a Perkin Elmer LS50B luminescence spectrometer (excitation 350 nm, emission 500 nm, both slits 10 nm). […] Assays were 100 μl in volume, reactions were run at room temperature (˜22 C) for 80 minutes (<10% of the substrate was consumed). The addition of 4 μl of 10% TFA quenched the reactions. Quantitation of hydrolysis products was determined by measuring fluorescent peak areas following HPLC. Products were detected by excitation at 350 nm and measuring emission at 500 nm. Aliquots (50 μl) of quenched enzymatic reactions were injected on an Hewlett Packard 1090 HPLC equipped with a ¼ inch Dynamex 60A C18 column. A linear gradient from 10% acetonitrile:H2O to 45% acetonitrile:H2O was run over a period of 15 min at a flow rate of 1.0 ml/min. All solvents contained 0.1% TFA.

[2] = biological target: T1, HCV NS3 protease, genotype 1a; assay type: biochemical; conditions: substrate B
Description: as §1, §2
Comparison of the effects of Q9692 on the hydrolysis of a P6-P3′ ester substrate (FIG. 2A) and a P6-P7′ substrate (FIG. 2B) and P6-P3′ amide substrate (FIG. 2C) were determined. For substrates A and B1 Concentrations of Q9692 are 0 (circles), 1 μM (squares), 2 μM (diamonds) and 4 μM (triangles). Assay conditions: HCV protease (5 nM) was incubated in 50 mM Tris buffer at pH 7.0, 15% glycerol, 0.1% maltoside, 5 mM DTT, 10 μM NS4A peptide, and specified concentration of substrate. Assays were 100 μl in volume and reactions were run at room temperature (22 C) and quenched by the addition of 4 μl of 10% TFA before 10% of the substrate was consumed. Incubation times were 20 minutes for the ester substrate and 80 minutes for the amide substrate. Hydrolysis products were quantitated by measuring fluorescent peak areas following HPLC and detection by excitation at 350 nm and measuring emission at 500 nm. Aliquots (50 μl) of quenched enzymatic reactions were injected on an Hewlett Packard 1090 HPLC equipped with a ¼ inch Dynamex 60A C18 column.

HCV protease [3] = conditions: cited from earlier work
HCV protease [4] = biological target: HCV protease (Hepatitis C virus genotype 1b, UniProt P26663); conditions: corresponding peptides as substrates; 50 mM Hepes pH 7.5, 1% CHAPS, 15% glycerol, NS4a cofactor peptide 80 μM; read-out: Ki; cited from earlier work
HCV protease (NS3) = biological target: T2, HCV protease (NS3) (Hepatitis C virus genotype 1a, UniProt P26664); assay type: binding; conditions: added to NS3 alone; excitation 280 nm
T2 construct: NS3 protease catalytic domain (amino acids 1 to 192); MGAQH expression leader (5 aa), or alternatively the 15 aa His tag MRGSHHHHHHMGAQH; made in house; host or cells: E. coli BL21 (DE3)
Description: Intrinsic fluorescence studies: Assays were conducted in 0.5 ml fluorescent cuvettes (0.4 ml total volume). […] Fluorescence spectra were obtained by exiting at 280 nm (10 nm slit) and scanning the emission profile from 300 to 400 nm (10 nm slit) at 1 nm s^−1.
Fluorescence spectrum of HCV protease (0.45 μM) in 50 mM Tris buffer, pH 7.0, containing 15% glycerol, and 0.10% maltoside were measured over a range of 300-400 nm using an excitation wavelength of 280 nm. Both excitation and emission slit widths were 10 nm and the scan rate was 1.0 nm sec^−1.

| Compound | Kd [1] [µM] | (S = P6-P3′) Inhibition(+) / Activation (−) [1] | (S = P6-P7′) Inhibition (+) / Activation (−) [2] | other results |
| --- | --- | --- | --- | --- |
| CC(=O)N[C@@H](CC(=O)O)C(=O)N[C@@H](CCC(=O)O)C(=O)N[C@H](C(=O)N[C@@H](CCC(=O)O)C(=O)N[C@@H](CC1CCCCC1)C(N)=O)C(c1ccccc1)c1ccccc1 [Q228, Ac-Asp-Glu-Dpa-Glu-Cha-NH2] (Ac-DE[Dip]E[Cha]-NH2) | 25 | − | + |  |
| CC(=O)N[C@@H](CC(=O)O)C(=O)N[C@@H](CCC(=O)O)C(=O)N[C@H](C(=O)N[C@@H](CCC(=O)O)C(N)=O)C(c1ccccc1)c1ccccc1 [Q229, Ac-Asp-Glu-Dpa-Glu-NH2] (Ac-DE[Dip]E-NH2) | 240 | + | + |  |
| CC(=O)N[C@@H](CC(=O)O)C(=O)N[C@@H](CCC(=O)O)C(=O)N[C@H](C(N)=O)C(c1ccccc1)c1ccccc1 [Q230, Ac-Asp-Glu-Dpa-NH2] (Ac-Asp-Glu-[Dip]-NH2) | 400 | + | + |  |
| CC(=O)N[C@H](C(=O)N[C@@H](CCC(=O)O)C(=O)N[C@@H](CC1CCCCC1)C(N)=O)C(c1ccccc1)c1ccccc1 [Q236, Ac-Dpa-Glu-Cha-NH2] (Ac-[Dip]-Glu-[Cha]-NH2) | 66 | − | − |  |
| CC(=O)N[C@@H](CCC(=O)O)C(=O)N[C@H](C(=O)N[C@@H](CCC(=O)O)C(=O)N[C@@H](CC1CCCCC1)C(N)=O)C(c1ccccc1)c1ccccc1 [Q240, Ac-Glu-Dpa-Glu-Cha-NH2] (Ac-E[Dip]E[Cha]-NH2) | 80 | − | − |  |
| CC(=O)N[C@@H](CCC(=O)O)C(=O)N[C@@H](CC1CCCCC1)C(=O)N[C@@H](CS)C(=O)O [Q295, Ac-Glu-Cha-Cys-OH] (Ac-Glu-[Cha]-Cys-OH) | 300 | + | + |  |
| CC(=O)N[C@H](C(=O)N[C@@H](CCC(=O)O)C(=O)N[C@@H](CC1CCCCC1)C(=O)N[C@@H](CS)C(=O)O)C(c1ccccc1)c1ccccc1 [Q296, Ac-Dpa-Glu-Cha-Cys-OH] (Ac-[Dip]E[Cha]C-OH) | 1.5 | − | − |  |
| CC(=O)N[C@@H](CCC(=O)O)C(=O)N[C@H](C(=O)N[C@@H](CCC(=O)O)C(=O)N[C@@H](CC1CCCCC1)C(=O)N[C@@H](CS)C(=O)O)C(c1ccccc1)c1ccccc1 [Q297, Ac-Glu-Dpa-Glu-Cha-Cys-OH] (Ac-E[Dip]E[Cha]C-OH) | 40 | − | + |  |
| C=CCC(NC(=O)[C@H](CC1CCCCC1)NC(=O)[C@H](CCC(=O)O)NC(=O)[C@@H](NC(=O)[C@H](CCC(=O)O)NC(=O)[C@H](CC(=O)O)NC(C)=O)C(c1ccccc1)c1ccccc1)B1OC2CC3CC(C3(C)C)C2(C)O1 (stereo partly drawn) [Q9716, Ac-Asp-Glu-Dpa-Glu-Cha-boroAlg—C10H16] (Ac-DE[Dip]E[Cha]-X1) |  |  |  | Ki [1]: ~0.005 µM |
| Ac-Asp-(D)Glu-Chg-Val-X-Nva—OH |  |  |  | Ki (HCV protease [3]): 0.028 µM |
| Ac-EDVW[Abu]C-OH |  |  |  | Ki (HCV protease [4]): 1.4 µM |
| Asp-Glu-Val-Val-Pro-AlgCF2CF3 (DEVVP-AlgCF2CF3; reading uncertain; also: printed as Asp-Glu-Val-Val-Pro-AlgCF2CF3) [Q9714] |  |  |  | Dixon plots of 1/V versus Q9717 concentration ([1]; 5 μM substrate spanning P6-P3′): parallel lines |
| DCSTPC [Ac-DCSTPC—OH] |  |  |  | Ki (HCV protease [4]): 180 µM |
| DEMEEC [Ac-DEMEEC—OH] |  |  |  | Ki (HCV protease [4]): 0.6 µM |
| KKGSVVIVGRIVLSGKPAIIPKK [NS4a] |  |  |  | increase in intrinsic fluorescence of the protease (NS3) (HCV protease (NS3)): 25% |
